{"source": "patent US10238638B2", "about": "“Benzothiazole and benzothiophene compounds” (Bristol-Myers Squibb Company, priority 2015, dated 2019)"}
{"target": "PAR1 (Homo sapiens (Human), UniProt P25116)", "sequence (P25116 22-425)": "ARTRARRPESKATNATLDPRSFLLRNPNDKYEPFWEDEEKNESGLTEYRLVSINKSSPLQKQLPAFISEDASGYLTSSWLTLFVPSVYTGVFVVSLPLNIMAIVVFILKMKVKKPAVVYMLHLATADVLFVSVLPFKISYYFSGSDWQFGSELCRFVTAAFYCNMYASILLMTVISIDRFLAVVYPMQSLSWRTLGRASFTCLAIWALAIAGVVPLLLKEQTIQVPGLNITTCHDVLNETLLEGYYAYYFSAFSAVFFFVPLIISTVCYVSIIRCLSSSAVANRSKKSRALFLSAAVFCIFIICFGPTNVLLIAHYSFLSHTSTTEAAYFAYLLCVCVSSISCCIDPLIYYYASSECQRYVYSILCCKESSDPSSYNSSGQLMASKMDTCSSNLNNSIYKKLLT", "experiment": "not given", "conditions": "ACS patients, phase III; cited from earlier work"}
{"molecule": "CCOC(=O)N[C@@H]1CC[C@@H]2[C@@H](C1)C[C@H]1C(=O)O[C@H](C)[C@H]1[C@H]2/C=C/c1ccc(-c2cccc(F)c2)cn1", "note": "[vorapaxar]", "cardiovascular events": "did not significantly reduce", "risk of major bleeding": "significantly increased"}
{"target": "PAR4 (Homo sapiens (Human), UniProt Q96RI0)", "sequence (Q96RI0 18-385)": "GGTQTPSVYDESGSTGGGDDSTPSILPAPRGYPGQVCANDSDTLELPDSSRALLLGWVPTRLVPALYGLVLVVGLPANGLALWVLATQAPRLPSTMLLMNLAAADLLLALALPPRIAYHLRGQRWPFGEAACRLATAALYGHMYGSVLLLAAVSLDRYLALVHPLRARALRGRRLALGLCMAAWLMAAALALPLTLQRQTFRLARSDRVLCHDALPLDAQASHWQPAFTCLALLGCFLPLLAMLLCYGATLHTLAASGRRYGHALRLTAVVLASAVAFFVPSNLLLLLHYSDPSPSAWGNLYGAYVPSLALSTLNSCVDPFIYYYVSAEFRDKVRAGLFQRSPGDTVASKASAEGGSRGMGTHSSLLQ", "experiment": "FLIPR assay in PAR4-expressing HEK293 cells (calcium mobilization)", "type": "cell-based", "conditions": "H-Ala-Phe(4-F)-Pro-Gly-Trp-Leu-Val-Lys-Asn-Gly-NH2-induced calcium mobilization, PAR4 antagonist activity", "excerpt": "The FLIPR assay is an exemplary in vitro assay for measuring the activity of the PAR4 antagonists of the present invention. In this assay, intracellular calcium mobilization is induced in PAR4 expressing cells by a PAR4 agonist and calcium mobilization is monitored.\nHEK293 cells stably expressing PAR4 were generated by a standard method of transfection of human PAR4 (F2R23) cDNA expression vector and selected based on PAR4 protein expression or mRNA expression. […] Therefore, the same cells were also used to determine selectivity against PAR1 and agonist activity for both receptors.\nFLIPR-based calcium mobilization assay in HEK293 cells was used to measure PAR4 antagonism, agonism, and selectivity against PAR1. […] Counter screens for agonist activity and PAR1 antagonist activity were also performed. Briefly, PAR1/PAR4-expressing HEK293 cells were grown in DMEM (Life Technology, Grand Island, N.Y.) containing 10% heat-inactivated FBS, 1% Penicillin-Streptomycin, 10 μg/mL blasticidin, and 100 μg/mL Zeocin at 37° C. with 5% CO2. Cells were plated overnight prior to the experiment in a black 384-well Purecoat Amine clear bottom plate (Becton Dickinson Biosciences, San Jose, Calif.) at 10,000 cells/well in 30 μL growth medium and incubated in a humidified chamber at 37° C. with 5% CO2 overnight. Prior to compound addition, the cell medium was replaced with 40 μL of 1× calcium and magnesium-containing Hank's Balanced Saline Solution (HBSS) (with 20 mM HEPES) and 1:1000 diluted fluorescent calcium indicator (Codex Biosolutions, Gaithersburg, Md.). After a 30 minute incubation period at 37° C. and a further 30 minute incubation and equilibration period at room temperature, 20 μL test compound (diluted in 1×HBSS buffer) was added at various concentrations at 0.17% dimethyl sulfoxide (DMSO) final concentration. Changes in fluorescence intensity were measured using a Functional Drug Screening System (FDSS, Hamamatsu, Japan) to determine agonist activities. The cells were then incubated for 30 minutes at room temperature followed by addition of 20 μL of agonist peptide for antagonist activity measurement. […] Compound potency was derived from 11-point concentration-response curves.", "units": {"IC50": "nM"}}
{"molecule": "COc1cc(OCc2csc(-c3ccc(C(=O)N4CCC[C@H](O)C4)cc3)n2)c2sc(-c3cn4nc(C)ccc4n3)nc2c1", "note": "[Example 48, (S)-(3-Hydroxypiperidin-1-yl)(4-(4-(((5-methoxy-2-(6-methylimidazo[1,2-b]pyridazin-2-yl)benzo[d]thiazol-7-yl)oxy)methyl)thiazol-2-yl)phenyl)methanone]", "IC50": 9900}
{"molecule": "COc1cc(OCc2csc(-c3ccc(C(=O)N(C)CC#N)cc3)n2)c2sc(-c3cn4nc(C5CC5)sc4n3)nc2c1", "note": "[Example 27, N-(Cyanomethyl)-4-(4-(((2-(2-cyclopropylimidazo[2,1-b][1,3,4]thiadiazol-6-yl)-5-methoxybenzo[d]thiazol-7-yl)oxy)methyl)thiazol-2-yl)-N-methylbenzamide]", "IC50": 1200}
{"molecule": "COc1cc(OCc2csc(-c3ccc(C(=O)N(C)C4CCOCC4)cc3)n2)c2sc(-c3cn4nc(C)sc4n3)nc2c1", "note": "[Example 10, 4-(4-(((5-Methoxy-2-(2-methylimidazo[2,1-b][1,3,4]thiadiazol-6-yl)benzo[d]thiazol-7-yl)oxy)methyl)thiazol-2-yl)-N-methyl-N-(tetrahydro-2H-pyran-4-yl)benzamide]", "IC50": 980}
{"molecule": "COc1cc(OCc2csc(-c3ccc(C(=O)O)cc3)n2)c2sc(-c3cn4nc(C)sc4n3)nc2c1", "note": "[Example 2, 4-(4-(((5-Methoxy-2-(2-methylimidazo[2,1-b][1,3,4]thiadiazol-6-yl)benzo[d]thiazol-7-yl)oxy)methyl)thiazol-2-yl)benzoic acid]", "IC50": 45000}
{"molecule": "COc1cc(OCc2csc(-c3ccc(C(=O)N4CCOC[C@H]4CO)cc3)n2)c2sc(-c3cn4nc(C)sc4n3)nc2c1", "note": "[Example 9, (R)-(3-(Hydroxymethyl)morpholino)(4-(4-(((5-methoxy-2-(2-methylimidazo[2,1-b][1,3,4]thiadiazol-6-yl)benzo[d]thiazol-7-yl)oxy)methyl)thiazol-2-yl)phenyl)methanone]", "IC50": 330}
{"molecule": "COc1cc(OCc2nc(-c3ccc(C(=O)N4CCC(CCO)CC4)cc3)sc2C)c2sc(-c3cn4nc(C)sc4n3)nc2c1", "note": "[Example 42, (4-(2-Hydroxyethyl)piperidin-1-yl)(4-(4-(((5-methoxy-2-(2-methylimidazo[2,1-b][1,3,4]thiadiazol-6-yl)benzo[d]thiazol-7-yl)oxy)methyl)-5-methylthiazol-2-yl)phenyl)methanone]", "IC50": 1100}
{"molecule": "COc1cc(OCc2csc(-c3ccc(C(=O)N4CC[C@@H](CO)C4)cc3)n2)c2sc(-c3cn4nc(C(C)(F)F)sc4n3)nc2c1", "note": "[Example 20, (R)-(4-(4-(((2-(2-(1,1-Difluoroethyl)imidazo[2,1-b][1,3,4]thiadiazol-6-yl)-5-methoxybenzo[d]thiazol-7-yl)oxy)methyl)thiazol-2-yl)phenyl)(3-(hydroxymethyl)pyrrolidin-1-yl)methanone]", "IC50": 1200}
